Source: US20240174690A1, “ANNULATED 2-AMINO-3-CYANO THIOPHENES AND DERIVATIVES FOR THE TREATMENT OF CANCER” (BOEHRINGER INGELHEIM INTERNATIONAL GMBH, priority 2021, published 2024)
Values after ≈ are worked out from the molar mass of the structure shown. Where two headings read alike, the source gives them in different places.

Legend:
NCI-H358 cells = test: NCI-H358 CTG proliferation assay (120 h) (NSCLC, G12C); type: cell-based, human; details: Homo sapiens
Protocol: NCI-H358 CTG Proliferation Assay (120 h) (NSCLC, G12C)
NCI-H358 cells (ATCC No. CRL-5807) are dispensed into white bottom opaque 96 well plates (Perkin Elmer cat no. 5680) at a density of 2000 cells per well in 100 μL RPMI-1640 ATCC-Formulation (Gibco #A10491)+10% FCS (fetal calf serum) (assay 1) or into black 384-well plates, flat and clear bottom (Greiner, PNr. 781091) at a density of 200 cells per well in 60 μl RPMI-1640 ATCC-Formulation (Gibco #A10491)+10% FCS (fetal calf serum) (assay 2). […] Compounds (10 mM stock in DMSO) are added at logarithmic dose series using the HP Digital Dispenser D300 (Tecan) (assay 1) or the ECHO acoustic liquid handler system (Beckman Coulter) (assay 2), normalizing for added DMSO and including DMSO controls. For the TO time point measurement, untreated cells are analyzed at the time of compound addition. Plates are incubated for 120 h, and cell viability is measured using CellTiter-Glo luminescent cell viability reagent (Promega product code G7570). Viability (stated as percent of control) is defined as relative luminescence units RLU of each well divided by the RLU of cells in DMSO controls. IC50 values are determined from viability measurements by non-linear regression using a four parameter model.

[1] = Solubility measurement (DMSO solution method), McIlvaine buffer pH 4.5 or 6.8; type: physicochemical; details: aqueous buffer, kinetic from dmso stock, DMSO stock diluted to 250 μM, 24 h shaking at ambient temperature
Protocol: The DMSO solution is diluted with an aqueous medium (Mcllvaine buffer with pH=4.5 or 6.8) to a final concentration of 250 μM. After 24 h of shaking at ambient temperature a potentially formed precipitate is removed by filtration. The concentration of the test compound in the filtrate is determined by LC-UV methods by calibrating the signal to the signal of a reference solution with complete dissolution of the test compound in acetonitrile/water (1:1) with known concentration.

SAS cells = test: SAS CTG proliferation assay (120 h) (HNSCC, wt amplified); type: cell-based
Protocol: SAS CTG Proliferation Assay (120 h) (HNSCC, Wt Amplified)
SAS cells (JCRB0260) are dispensed into 384-well plates, flat and clear bottom (Greiner, PNr. 781091) at a density of 300 cells per well in 60 μL DMEM:F12 (Gibco 31330-038)+10% Fetal Calf Serum (HyClone, PNr.: SH30084.03) and incubated at 37° C. in a CO2 incubator overnight. The next day, compounds (10 mM stock in DMSO) are added with the ECHO acoustic liquid handler system (Beckman Coulter), including DMSO controls. Plates are incubated for 120 h, and cell viability is measured using CellTiter-Glo luminescent cell viability reagent (Promega product code G7570). Viability (stated as percent of control) is defined as relative luminescence units RLU of each well divided by the RLU of cells in DMSO controls. IC50 values are determined from viability measurements by non-linear regression using a four-parameter model.

NCI-H2122 cells = test: NCI-H2122 CTG proliferation assay (120 h) (NSCLC, G12C); type: cell-based; details: Homo sapiens
Protocol: NCI-H2122 CTG Proliferation Assay (120 h) (NSCLC, G12C)
The CTG assay is designed to measure quantitatively the proliferation of NCI-H2122 cells (ATCC CRL-5985), using the CellTiter Glow Assay Kit (Promega G7571). Cells are grown in RPMI medium (ATCC) supplemented with Fetal Calf Serum (Life Technologies, Gibco BRL, Cat. No. 10270-106). On “day 0” 200 NCI-H2122 cells are seeded in 60 μL RPMI ATCC+10% FCS+Penstrep in a black 384-well plate, flat and clear bottom (Greiner, PNr. 781091). Cells are then incubated in the plates at 37° C. in a CO2 incubator overnight. On day 1, compounds (10 mM stock in DMSO) are added with the ECHO acoustic liquid handler system (Beckman Coulter), including DMSO controls. Plates are incubated for 120 h, and cell viability is measured using CellTiter-Glo luminescent cell viability reagent (Promega product code G7570). Viability (stated as percent of control) is defined as relative luminescence units RLU of each well divided by the RLU of cells in DMSO controls. IC50 values are determined from viability measurements by non-linear regression using a four parameter model.

[2] = system: KRAS G12C-dependent Ba/F3 cells; test: Ba/F3 proliferation assay, KRAS G12C; type: cell-based; details: Mus musculus, BaF3, 72 h, AlamarBlue
Protocol: Plasmids containing KRASG12 mutants (i.e. […], G12C, G12V) are obtained from GeneScript. To generate KRASG12-dependent Ba/F3 models, Ba/F3 cells are transduced with retroviruses containing vectors that harbor KRASG12 isoforms. Platinum-E cells (Cell Biolabs) are used for retrovirus packaging. Retrovirus is added to Ba/F3 cells. To ensure infection, 4 μg/mL polybrene is added and cells are spinfected. […] Cells with an infection efficiency of 10% to 20% are further cultivated and puromycin selection with 1 μg/mL is initiated. As a control, parental Ba/F3 cells are used to show selection status. Selection is considered successful when parental Ba/F3 cells cultures died. To evaluate the transforming potential of KRASG12 mutations, the growth medium is no longer supplemented with IL-3. Ba/F3 cells harboring the empty vector are used as a control. Approximately ten days before conducting the experiments, puromycin is left out.
Compounds are added using an Access Labcyte Workstation with a Labcyte Echo 550 or 555 accoustic dispenser. All treatments are performed in technical duplicates. […] AlamarBlue™ (ThermoFisher), a viability stain, is added and fluorescence measured in the PerkinElmer Envision HTS Multilabel Reader. The raw data are imported into and analyzed with the Boehringer Ingelheim proprietary software MegaLab (curve fitting based on the program PRISM, GraphPad Inc.).

[3] = assay 1, CTG, read-out: H358 (assay 1) IC50
[4] = assay 2, CTG, read-out: H358 (assay 2) IC50
[5] = McIlvaine buffer pH 4.5, read-out: solubility pH 4.5
[6] = McIlvaine buffer pH 6.8, read-out: solubility pH 6.8

SMILES	IC50 (NCI-H358 cells; [3])	IC50 (NCI-H358 cells; [4])	solubility at 24 h [1, 5]	solubility at 24 h [1, 6]	IC50 (SAS cells)	IC50 (NCI-H2122 cells)	IC50 [2]
C[C@H](Oc1cc(N2CCNC3(CC3)C2)nc(-c2onc3c2CCC[C@@]32CCCc3sc(N)c(C#N)c32)n1)[C@@H]1CCCN1C [I-5]	0.813 µM	0.852 µM	> 0.138 mg/mL	> 0.123 mg/mL	2.04 µM	2.42 µM	0.124 µM
C[C@H](Oc1cc(N2C[C@H](C)N[C@@H](C)C2)nc(-c2onc3c2CCC[C@@]32CCCc3sc(N)c(C#N)c32)n1)[C@@H]1CCCN1C [I-6]	0.809 µM	–	> 0.147 mg/mL	> 0.144 mg/mL	3.44 µM	3.38 µM	0.253 µM
C[C@H]1CN(C)CCCN1c1cc(N2CCN(C)CC2)nc(-c2onc3c2CCC[C@@]32CCCc3sc(N)c(C#N)c32)n1 [I-7]	–	–	> 0.139 mg/mL	> 0.133 mg/mL	0.472 µM	3.46 µM	0.608 µM
C[C@H](Oc1cc(N2C[C@H](C)NC3(CC3)C2)nc(-c2onc3c2CCC[C@@]32CCCc3sc(N)c(C#N)c32)n1)[C@@H]1CCCN1C [I-8]	0.874 µM	–	> 0.146 mg/mL	0.116 mg/mL (≈ 189 µM)	0.131 µM	3.04 µM	0.106 µM
C[C@H](Oc1cc(N2CCN3CCC3C2)nc(-c2onc3c2CCC[C@@]32CCCc3sc(N)c(C#N)c32)n1)[C@@H]1CCCN1C (some centres unmarked) [I-9]	–	1.31 µM	> 0.149 mg/mL	> 0.147 mg/mL	20.2 µM	3.34 µM	0.264 µM
C[C@H](Oc1cc(N2CCNCC23CCOC3)nc(-c2onc3c2CCC[C@@]32CCCc3sc(N)c(C#N)c32)n1)[C@@H]1CCCN1C (some centres unmarked) [I-10]	–	0.2 µM	> 0.141 mg/mL	> 0.136 mg/mL	–	–	0.218 µM
C[C@H](Oc1cc(-n2cc3c(n2)CCNC3)nc(-c2noc3c2CCC[C@@]32CCCc3sc(N)c(C#N)c32)n1)[C@@H]1CCCN1C [II-53]	–	0.23 µM	–	–	1.72 µM	3.69 µM	0.292 µM
CO[C@@H]1C[C@@H]([C@H](C)Oc2cc(-c3cnn(C)n3)nc(-c3noc4c3CCC[C@@]43CCCc4sc(N)c(C#N)c43)n2)N(C)C1 [II-62]	–	–	> 0.129 mg/mL	< 0.001 mg/mL	0.05 µM	4.79 µM	0.034 µM
C[C@H](Oc1cc(N2CCCC2=O)nc(-c2noc3c2CCC[C@@]32CCCc3sc(N)c(C#N)c32)n1)[C@@H]1CCCN1C [II-73]	–	–	> 0.124 mg/mL	0.088 mg/mL (≈ 153 µM)	0.033 µM	1.61 µM	0.01 µM
Cc1nccn1-c1cc(O[C@@H](C)[C@@H]2CCCN2C)nc(-c2noc3c2CCC[C@@]32CCCc3sc(N)c(C#N)c32)n1 [II-79]	–	–	> 0.154 mg/mL	0.102 mg/mL (≈ 179 µM)	2.59 µM	1.27 µM	0.024 µM
C[C@H](Oc1cc(-c2cncs2)nc(-c2noc3c2CCC[C@@]32CCCc3sc(N)c(C#N)c32)n1)[C@@H]1CCCN1C [II-80]	–	–	–	–	> 25 µM	1.67 µM	0.021 µM
C[C@H](Oc1cc(-c2ccn(C3COC3)n2)nc(-c2noc3c2CCC[C@@]32CCCc3sc(N)c(C#N)c32)n1)[C@@H]1C[C@H](F)CN1C [II-83]	–	–	< 0.001 mg/mL	< 0.001 mg/mL	0.018 µM	3.82 µM	0.015 µM
C[C@H](Oc1cc(-c2cn[nH]c2)nc(-c2noc3c2CCC[C@@]32CCCc3sc(N)c(C#N)c32)n1)[C@@H]1CCCN1C [II-87]	–	0.106 µM	–	–	0.107 µM	1.99 µM	0.047 µM
C[C@H](Oc1cc([C@H]2CCOC2)nc(-c2noc3c2CCC[C@@]32CCCc3sc(N)c(C#N)c32)n1)[C@@H]1CCCN1C [II-88]	–	0.126 µM	–	–	2.22 µM	0.434 µM	0.006 µM
C[C@H](Oc1cc(N2CCc3cccnc32)nc(-c2noc3c2CCC[C@@]32CCCc3sc(N)c(C#N)c32)n1)[C@@H]1CCCN1C [II-90]	–	3.25 µM	–	–	4.39 µM	1.86 µM	0.157 µM
C[C@H](Oc1cc(-n2cccc3cnnc2-3)nc(-c2noc3c2CCC[C@@]32CCCc3sc(N)c(C#N)c32)n1)[C@@H]1CCCN1C [II-92]	–	3.4 µM	–	–	0.275 µM	1.81 µM	0.047 µM
C[C@H](Oc1cc(-c2cn(C3COC3)nn2)nc(-c2noc3c2CCC[C@@]32CCCc3sc(N)c(C#N)c32)n1)[C@@H]1CCCN1C [II-100]	–	–	0.12 mg/mL (≈ 196 µM)	0.057 mg/mL (≈ 92.9 µM)	3.19 µM	2.14 µM	0.019 µM
C[C@H](Oc1cc(-n2ccc(C#N)n2)nc(-c2noc3c2CCC[C@@]32CCCc3sc(N)c(C#N)c32)n1)[C@@H]1CCCN1C [II-102]	–	–	0.024 mg/mL (≈ 41.3 µM)	< 0.001 mg/mL	0.071 µM	0.084 µM	0.004 µM
Cc1nc(-c2cc(O[C@@H](C)[C@@H]3CCCN3C)nc(-c3noc4c3CCC[C@@]43CCCc4sc(N)c(C#N)c43)n2)cs1 [II-103]	–	–	0.053 mg/mL (≈ 90.2 µM)	< 0.001 mg/mL	–	–	0.007 µM
C[C@H](Oc1cc(-c2ccn3ncnc3c2)nc(-c2noc3c2CCC[C@@]32CCCc3sc(N)c(C#N)c32)n1)[C@@H]1CCCN1C [II-104]	–	0.391 µM	0.003 mg/mL (≈ 4.94 µM)	< 0.001 mg/mL	0.114 µM	–	0.024 µM
CO[C@@H]1C[C@@H]([C@H](C)Oc2cc(-c3ccn(C4COC4)n3)nc(-c3noc4c3CCC[C@@]43CCCc4sc(N)c(C#N)c43)n2)N(C)C1 [II-107]	–	–	> 0.162 mg/mL	< 0.001 mg/mL	0.007 µM	5.72 µM	0.005 µM
C[C@H](Oc1cc(-c2cn(C3CCOCC3)nn2)nc(-c2noc3c2CCC[C@@]32CCCc3sc(N)c(C#N)c32)n1)[C@@H]1CCCN1C [II-115]	–	–	–	–	–	–	0.029 µM
C[C@H](Oc1cc(-n2ccncc2=O)nc(-c2noc3c2CCC[C@@]32CCCc3sc(N)c(C#N)c32)n1)[C@@H]1CCCN1C [II-116]	–	–	–	–	2.01 µM	1.12 µM	0.006 µM
